Measurements from patent publication US8076487B2, “Pyridone derivative and herbicide” (Kumiai Chemical Industry Co., Ltd., priority 2006, dated 2011).

Experiments:
Type in all cases: in vivo
[1] = test system: Japanese bulrush (Scirpus juncoides Roxb.); assay: Test Example 1: herbicidal effect by soil application to paddy field; settings: paddy field soil application; active ingredient 1,000 g per 1 hectare; wettable powder added dropwise to water surface the day after sowing; examined on the 21st day after application
Outline: (§1)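 Plants were sown in flooded (3 cm) paddy soil and evaluated for herbicidal effect 21 days after soil application in a greenhouse.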

[2] = test system: heartshape false pickerelweed (Monochoria vaginalis (Burm.f.) C.Presl); assay: as above; settings: paddy field soil application; active ingredient 1,000 g per 1 hectare; wettable powder added dropwise to water surface the day after sowing; examined on the 21st day after application
Outline: as §1

[3] = test system: early watergrass (Echinochloa oryzicola Vasing); assay: as above; settings: paddy field soil application; active ingredient 1,000 g per 1 hectare; wettable powder added dropwise to water surface the day after sowing; examined on the 21st day after application
Outline: as §1

[4] = test system: green foxtail (Setaria viridis (L.) P. Beauv.); assay: Test Example 2: herbicidal effect by soil application to upland field; settings: soil surface spray, upland field soil, 1,000 g active ingredient per hectare, 21st day after application
Outline: (§2)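 Using a small sprayer, we treat the soil surface of pots just after sowing and covering seeds. The aqueous wettable powder supplies 1,000 g a.i./ha in 1,000 L water/ha; after greenhouse growth, injury is scored on day 21 using a standard rating.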

[5] = test system: velvetleaf (Abutilon theophrasti medicus); assay: as above; settings: soil surface spray, upland field soil, 1,000 g active ingredient per hectare, 21st day after application
Outline: as §2

[6] = test system: barnyardgrass (Echinochloa crus-galli (L.) P. Beauv. var. crus-galli); assay: as above; settings: soil surface spray, upland field soil, 1,000 g active ingredient per hectare, 21st day after application
Outline: as §2

[7] = test system: slender amaranth (Amaranthus viridis L.); assay: as above; settings: soil surface spray, upland field soil, 1,000 g active ingredient per hectare, 21st day after application
Outline: as §2

[8] = test system: green foxtail (Setaria viridis (L.) P. Beauv.); assay: Test Example 3: herbicidal effect by application to upland field (foliage treatment); settings: 14th day after application; for herbicidal effect (index), Green Foxtail: foliage treatment, plants grown two weeks, 1,000 g active ingredient per hectare; for herbicidal effect, Green Foxtail: foliage treatment, 1,000 g active ingredient per 1 hectare, greenhouse
Outline: (§3)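 Upland foliage test in greenhouse pots of field soil: seedlings sprayed at two weeks post-sowing with 1,000 g/ha active ingredient (wettable powder, 1,000 L water/ha). Scored 14 d after application.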

[9] = test system: velvetleaf (Abutilon theophrasti medicus); assay: as above; settings: 14th day after application; for herbicidal effect (index), Velvetleaf: foliage treatment, plants grown two weeks, 1,000 g active ingredient per hectare; for herbicidal effect, Velvetleaf: foliage treatment, 1,000 g active ingredient per 1 hectare, greenhouse
Outline: as §3

[10] = test system: barnyardgrass (Echinochloa crus-galli (L.) P. Beauv. var. crus-galli); assay: as above; settings: 14th day after application; for herbicidal effect (index), Barnyardgrass: foliage treatment, plants grown two weeks, 1,000 g active ingredient per hectare; for herbicidal effect, Barnyardgrass: foliage treatment, 1,000 g active ingredient per 1 hectare, greenhouse
Outline: as §3

[11] = test system: slender amaranth (Amaranthus viridis L.); assay: as above; settings: 14th day after application; for herbicidal effect (index), Slender Amaranth: foliage treatment, plants grown two weeks, 1,000 g active ingredient per hectare; for herbicidal effect, Slender Amaranth: foliage treatment, 1,000 g active ingredient per 1 hectare, greenhouse
Outline: as §3

Structure (SMILES) | herbicidal effect, Scirpus juncoides Roxb. [1] | herbicidal effect, Monochoria vaginalis (Burm. f.) C. Presl [2] | herbicidal effect, Echinochloa oryzicola Vasing [3] | herbicidal effect (index), Green Foxtail [4] | herbicidal effect (index), Velvetleaf [5] | herbicidal effect (index), Barnyardgrass [6] | herbicidal effect (index), Slender Amaranth [7] | herbicidal effect (index), Green Foxtail [8] | herbicidal effect (index), Velvetleaf [9] | herbicidal effect (index), Barnyardgrass [10] | herbicidal effect (index), Slender Amaranth [11] | herbicidal effect, Green Foxtail [8] | herbicidal effect, Velvetleaf [9] | herbicidal effect, Barnyardgrass [10] | herbicidal effect, Slender Amaranth [11]
CCC(C)n1c(C(F)(F)F)ccc(C(=O)C2=C(O)CCCC2=O)c1=O (centres unmarked) [I-7] | 5 (90% or more of herbicidal effect and crop phytotoxicity) | 5 (90% or more of herbicidal effect and crop phytotoxicity) | 5 (90% or more of herbicidal effect and crop phytotoxicity) | 5 (90% or more of herbicidal effect and crop phytotoxicity) | 5 (90% or more of herbicidal effect and crop phytotoxicity) | 5 (90% or more of herbicidal effect and crop phytotoxicity) | 5 (90% or more of herbicidal effect and crop phytotoxicity) | 5 (90% or more of herbicidal effect and crop phytotoxicity) | 5 (90% or more of herbicidal effect and crop phytotoxicity) | 5 (90% or more of herbicidal effect and crop phytotoxicity) | 5 (90% or more of herbicidal effect and crop phytotoxicity) | – | – | – | –
CSc1cccc(-n2c(C(F)(F)F)ccc(C(=O)C3=C(O)CCCC3=O)c2=O)c1 [I-80] | 5 (90% or more of herbicidal effect and crop phytotoxicity) | 5 (90% or more of herbicidal effect and crop phytotoxicity) | 5 (90% or more of herbicidal effect and crop phytotoxicity) | 5 (90% or more of herbicidal effect and crop phytotoxicity) | 5 (90% or more of herbicidal effect and crop phytotoxicity) | 5 (90% or more of herbicidal effect and crop phytotoxicity) | 5 (90% or more of herbicidal effect and crop phytotoxicity) | 5 (90% or more of herbicidal effect and crop phytotoxicity) | 5 (90% or more of herbicidal effect and crop phytotoxicity) | 5 (90% or more of herbicidal effect and crop phytotoxicity) | 5 (90% or more of herbicidal effect and crop phytotoxicity) | – | – | – | –
C=CCn1c(C(F)(F)F)ccc(C(=O)c2cnn(C)c2O)c1=O [IV-11] | 5 (90% or more of herbicidal effect and crop phytotoxicity) | 5 (90% or more of herbicidal effect and crop phytotoxicity) | 5 (90% or more of herbicidal effect and crop phytotoxicity) | 4 (70 to less than 90% of herbicidal effect and crop phytotoxicity) | 5 (90% or more of herbicidal effect and crop phytotoxicity) | 5 (90% or more of herbicidal effect and crop phytotoxicity) | 5 (90% or more of herbicidal effect and crop phytotoxicity) | – | – | – | – | 5 (90% or more of herbicidal effect and crop phytotoxicity) | 5 (90% or more of herbicidal effect and crop phytotoxicity) | 5 (90% or more of herbicidal effect and crop phytotoxicity) | 5 (90% or more of herbicidal effect and crop phytotoxicity)
Cn1ncc(C(=O)c2ccc(C(F)(F)F)n(CCS(C)(=O)=O)c2=O)c1O [IV-54] | 4 (70 to less than 90% of herbicidal effect and crop phytotoxicity) | 4 (70 to less than 90% of herbicidal effect and crop phytotoxicity) | 5 (90% or more of herbicidal effect and crop phytotoxicity) | 5 (90% or more of herbicidal effect and crop phytotoxicity) | 5 (90% or more of herbicidal effect and crop phytotoxicity) | 5 (90% or more of herbicidal effect and crop phytotoxicity) | 5 (90% or more of herbicidal effect and crop phytotoxicity) | – | – | – | – | 5 (90% or more of herbicidal effect and crop phytotoxicity) | 5 (90% or more of herbicidal effect and crop phytotoxicity) | 5 (90% or more of herbicidal effect and crop phytotoxicity) | 5 (90% or more of herbicidal effect and crop phytotoxicity)
N#Cc1cccc(Cn2c(C(F)(F)F)ccc(C(=O)C3=C(O)CCCC3=O)c2=O)c1 [I-118] | 5 (90% or more of herbicidal effect and crop phytotoxicity) | 5 (90% or more of herbicidal effect and crop phytotoxicity) | 5 (90% or more of herbicidal effect and crop phytotoxicity) | 4 (70 to less than 90% of herbicidal effect and crop phytotoxicity) | 5 (90% or more of herbicidal effect and crop phytotoxicity) | 5 (90% or more of herbicidal effect and crop phytotoxicity) | 5 (90% or more of herbicidal effect and crop phytotoxicity) | – | – | – | – | 5 (90% or more of herbicidal effect and crop phytotoxicity) | 5 (90% or more of herbicidal effect and crop phytotoxicity) | 5 (90% or more of herbicidal effect and crop phytotoxicity) | 5 (90% or more of herbicidal effect and crop phytotoxicity)
CCS(=O)(=O)Cn1c(C(F)(F)F)ccc(C(=O)C2=C(O)CCCC2=O)c1=O [I-49] | 5 (90% or more of herbicidal effect and crop phytotoxicity) | 5 (90% or more of herbicidal effect and crop phytotoxicity) | 5 (90% or more of herbicidal effect and crop phytotoxicity) | 4 (70 to less than 90% of herbicidal effect and crop phytotoxicity) | 5 (90% or more of herbicidal effect and crop phytotoxicity) | 5 (90% or more of herbicidal effect and crop phytotoxicity) | 5 (90% or more of herbicidal effect and crop phytotoxicity) | 5 (90% or more of herbicidal effect and crop phytotoxicity) | 5 (90% or more of herbicidal effect and crop phytotoxicity) | 5 (90% or more of herbicidal effect and crop phytotoxicity) | 5 (90% or more of herbicidal effect and crop phytotoxicity) | – | – | – | –
O=C1CCCC(O)=C1C(=O)c1ccc(C(F)(F)F)n(-c2ccccn2)c1=O [I-150] | 5 (90% or more of herbicidal effect and crop phytotoxicity) | 5 (90% or more of herbicidal effect and crop phytotoxicity) | 5 (90% or more of herbicidal effect and crop phytotoxicity) | 5 (90% or more of herbicidal effect and crop phytotoxicity) | 5 (90% or more of herbicidal effect and crop phytotoxicity) | 5 (90% or more of herbicidal effect and crop phytotoxicity) | 5 (90% or more of herbicidal effect and crop phytotoxicity) | – | – | – | – | 5 (90% or more of herbicidal effect and crop phytotoxicity) | 5 (90% or more of herbicidal effect and crop phytotoxicity) | 5 (90% or more of herbicidal effect and crop phytotoxicity) | 5 (90% or more of herbicidal effect and crop phytotoxicity)
